Format in all cases: cell-based
Assay [1] addresses T1, α4β7 integrin (Homo sapiens (Human), UniProt P13612+P26010). The assay is described as follows: Integrin Adhesion Assay: Protocol 1 (MAdCAM-coated plate, RPMI-8866 cells, CellTiter GLO readout). The method, boiled down: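 RPMI-8866 cells (2×10^6 per mL) added with compounds (1% DMSO) to MAdCAM-coated wells blocked in HEPES/NaCl buffer with 1 mM MnCl2, 0.1 mM CaCl2, 1% BSA; 1 h at 37° C, 5% CO2. After four washes, bound cells read by CellTiter GLO luminescence; % inhibition vs DMSO and control wells, 4-parameter fit.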

Assay [2] has as its target T1, α4β7 integrin. The assay is described as follows: Integrin Adhesion Assay: Protocol 4 (MAdCAM-coated plate, RPMI-8866 cells with stable LOF mutation of the ITGB1 gene). The conditions noted are these: RPMI-8866 cells with stable LOF mutation of the ITGB1 gene; read-out: Mean IC50 α4β7 KO^a. The gist of the method:
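RPMI-8866 cells with CRISPR/Cas9 knockout of ITGB1 (2×10^6/mL) were added to MAdCAM-coated wells with compound (1% DMSO) in HEPES/NaCl buffer with 1 mM MnCl2, 0.1 mM CaCl2 and 1% BSA, then incubated 1 h at 37 °C. After four washes, adherent cells were quantified by CellTiter-Glo luminescence. Percent inhibition versus DMSO and control compound was fitted to 4-parameter curves.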

In the next assay the target is α4β1 integrin (Homo sapiens (Human), UniProt P05556+P13612). In words: Integrin Adhesion Assay: Protocol 5 (VCAM-coated plate, RPMI-8866 cells with stable LOF mutation of the ITGB7 gene). The gist of the method: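 RPMI-8866 B cells with CRISPR/Cas9 ITGB7 knockout (clonal, verified by flow cytometry) adhered to VCAM-coated wells for 1 h at 37° C in HEPES/NaCl buffer with 1 mM MnCl2, 0.1 mM CaCl2, 1% BSA, 1% DMSO. Bound cells quantified by CellTiter-Glo luminescence after washing; % inhibition versus DMSO and control, 4-parameter fit.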
Chain of α4β1 integrin (P13612 34-1032): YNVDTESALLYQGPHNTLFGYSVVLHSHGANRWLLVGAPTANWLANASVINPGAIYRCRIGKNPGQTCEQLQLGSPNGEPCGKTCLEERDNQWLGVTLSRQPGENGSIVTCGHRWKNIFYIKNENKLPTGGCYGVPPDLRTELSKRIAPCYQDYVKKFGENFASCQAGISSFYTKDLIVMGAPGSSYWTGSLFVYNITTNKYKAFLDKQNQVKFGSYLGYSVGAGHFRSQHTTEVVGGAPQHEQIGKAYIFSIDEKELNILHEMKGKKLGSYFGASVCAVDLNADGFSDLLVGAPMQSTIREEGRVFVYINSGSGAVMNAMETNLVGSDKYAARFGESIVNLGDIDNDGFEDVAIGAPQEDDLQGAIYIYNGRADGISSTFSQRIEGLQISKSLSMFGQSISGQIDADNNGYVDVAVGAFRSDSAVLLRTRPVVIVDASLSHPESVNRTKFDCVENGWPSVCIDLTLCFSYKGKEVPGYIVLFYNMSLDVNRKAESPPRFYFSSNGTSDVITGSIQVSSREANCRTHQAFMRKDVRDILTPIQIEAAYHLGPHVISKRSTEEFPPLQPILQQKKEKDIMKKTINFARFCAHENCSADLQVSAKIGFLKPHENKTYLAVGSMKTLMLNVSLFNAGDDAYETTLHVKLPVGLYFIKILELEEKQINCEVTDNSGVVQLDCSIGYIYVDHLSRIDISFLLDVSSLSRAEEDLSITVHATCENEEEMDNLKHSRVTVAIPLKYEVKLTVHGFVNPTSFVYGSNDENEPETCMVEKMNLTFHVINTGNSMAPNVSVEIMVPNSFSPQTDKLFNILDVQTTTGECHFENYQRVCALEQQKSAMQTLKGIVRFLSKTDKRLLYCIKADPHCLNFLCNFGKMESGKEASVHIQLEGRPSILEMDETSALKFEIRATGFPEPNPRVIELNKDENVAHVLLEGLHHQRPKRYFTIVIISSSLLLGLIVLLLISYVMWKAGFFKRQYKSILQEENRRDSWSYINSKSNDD
Chain of α4β1 integrin (P05556 21-798): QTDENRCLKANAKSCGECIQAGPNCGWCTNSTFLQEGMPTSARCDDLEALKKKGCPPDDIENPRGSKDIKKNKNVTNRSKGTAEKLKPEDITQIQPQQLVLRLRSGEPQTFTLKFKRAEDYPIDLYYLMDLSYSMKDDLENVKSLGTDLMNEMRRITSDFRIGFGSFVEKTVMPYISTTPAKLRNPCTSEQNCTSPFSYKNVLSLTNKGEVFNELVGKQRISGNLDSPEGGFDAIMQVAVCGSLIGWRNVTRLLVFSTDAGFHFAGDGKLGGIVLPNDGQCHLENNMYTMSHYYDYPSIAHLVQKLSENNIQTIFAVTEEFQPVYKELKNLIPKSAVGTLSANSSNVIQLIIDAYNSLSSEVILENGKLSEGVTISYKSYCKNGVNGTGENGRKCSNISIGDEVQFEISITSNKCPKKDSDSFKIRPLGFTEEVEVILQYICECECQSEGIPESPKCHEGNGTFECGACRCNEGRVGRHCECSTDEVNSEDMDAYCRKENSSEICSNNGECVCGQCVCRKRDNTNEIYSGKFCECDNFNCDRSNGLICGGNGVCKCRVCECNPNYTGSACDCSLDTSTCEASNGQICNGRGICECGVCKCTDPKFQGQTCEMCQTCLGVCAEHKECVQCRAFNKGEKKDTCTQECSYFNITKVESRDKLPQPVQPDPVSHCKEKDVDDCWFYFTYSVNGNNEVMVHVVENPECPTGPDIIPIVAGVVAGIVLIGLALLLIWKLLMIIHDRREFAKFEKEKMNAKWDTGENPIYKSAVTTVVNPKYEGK

Setting [3] is: RPMI-8866 cells with stable LOF mutation of the ITGB7 gene, read-out: Mean IC50 α4β1 KO^b.
[4] abbreviates: Protocol 5, RPMI-8866 cells with LOF mutation of ITGB7, VCAM, read-out: Mean IC50 α4β1 KO.

Read-outs that look alike come from different tables or passages of the source.

T1 sequence (P13612 34-1032): as the sequence (P13612 34-1032) above
T1 sequence (P26010 20-798): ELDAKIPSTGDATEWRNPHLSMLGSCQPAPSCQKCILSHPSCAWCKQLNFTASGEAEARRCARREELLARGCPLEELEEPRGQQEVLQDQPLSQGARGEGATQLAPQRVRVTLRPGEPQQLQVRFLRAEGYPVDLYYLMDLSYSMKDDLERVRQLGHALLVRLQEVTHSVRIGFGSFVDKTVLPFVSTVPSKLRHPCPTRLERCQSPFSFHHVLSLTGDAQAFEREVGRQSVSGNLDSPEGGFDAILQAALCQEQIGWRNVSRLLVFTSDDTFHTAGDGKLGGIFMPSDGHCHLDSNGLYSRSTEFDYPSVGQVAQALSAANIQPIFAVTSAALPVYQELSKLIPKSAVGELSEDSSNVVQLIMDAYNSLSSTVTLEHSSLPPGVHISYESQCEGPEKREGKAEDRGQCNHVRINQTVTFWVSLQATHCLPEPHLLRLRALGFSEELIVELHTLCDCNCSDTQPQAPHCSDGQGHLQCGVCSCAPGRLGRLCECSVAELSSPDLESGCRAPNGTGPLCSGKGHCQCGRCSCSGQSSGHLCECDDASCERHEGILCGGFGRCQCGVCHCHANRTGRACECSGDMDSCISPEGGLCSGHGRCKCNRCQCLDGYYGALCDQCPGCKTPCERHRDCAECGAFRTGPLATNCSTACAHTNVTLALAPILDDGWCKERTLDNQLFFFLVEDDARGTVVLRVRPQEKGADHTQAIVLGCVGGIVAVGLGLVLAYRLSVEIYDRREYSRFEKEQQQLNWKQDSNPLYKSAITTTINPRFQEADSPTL

The IC50 is the concentration needed to halve the response being measured. With `Cn1c(=O)c(-c2cccc3c(C[C@H](NC(=O)c4c(F)cc(N5CCOC(CN6CCCC6)C5)cc4F)C(=O)O)cccc23)c(C(F)(F)F)c2ccccc21` (stereo partly drawn) [Compound 339], the IC50 against α4β7 integrin [1] and at α4β7 integrin [2] was 0.1 to 1 µM throughout.
With `Cn1c(=O)c(-c2cccc3c(C[C@H](NC(=O)C45CC(NCC(F)(F)F)(C4)C5)C(=O)O)cccc23)c(C(F)(F)F)c2ccccc21` [Compound 447], the IC50 at α4β7 integrin [1] and on α4β7 integrin [2] was 0.1 to 1 µM each time.
Consider `Cn1c(=O)c(-c2cccc3c(C[C@H](NC(=O)C45CC(C(F)F)(C4)C5)C(=O)O)cccc23)c(C(F)(F)F)c2ccccc21` [Compound 390], for which the IC50 at α4β7 integrin [1] and on α4β7 integrin [2] was 0.1 to 1 µM throughout.
For `Cn1c(=O)c(-c2cccc3c(C[C@H](NC(=O)c4c(F)ccc(C5CCC(F)(F)CC5)c4F)C(=O)O)cccc23)c(C(F)(F)F)c2ccccc21` [Compound 382], the IC50 on α4β7 integrin [1] and on α4β7 integrin [2] was 0.1 to 1 µM each time.
For the compound `CN(C)CC1CN(c2cc(F)c(C(=O)N[C@@H](Cc3cccc4c(-c5c(C(F)(F)F)c6ccccc6n(C)c5=O)cccc34)C(=O)O)c(F)c2)CCO1` (stereo partly drawn) [Compound 335], the IC50 on α4β7 integrin [1] and at α4β7 integrin [2] was 0.1 to 1 µM each time.
In the case of `Cn1c(=O)c(-c2cccc3c(C[C@H](NC(=O)[C@]4(C(F)(F)F)CC[C@H](N5CCOC[C@@H]5C(F)(F)F)CC4)C(=O)O)cccc23)c(C(F)(F)F)c2ccccc21` [Compound 423], the IC50 on α4β7 integrin [1] and at α4β7 integrin [2] was 0.1 to 1 µM each time.
As to `CN(C)Cc1cccc2c(-c3cccc4c(C[C@H](NC(=O)[C@]5(C)CC[C@H](N6CCC(F)(F)CC6)CC5)C(=O)O)cccc34)nccc12` [Compound 425], the IC50 on α4β7 integrin [1] and on α4β7 integrin [2] was 0.1 to 1 µM in each case.
On to `Cn1c(=O)c(-c2cccc3c(C[C@H](NC(=O)c4c(F)cc(N5CC(C(F)(F)F)C5)cc4F)C(=O)O)cccc23)c(C(F)(F)F)c2ccccc21` [Compound 388], for which the IC50 at α4β7 integrin [1] and on α4β7 integrin [2] was 0.1 to 1 µM throughout.
As for `COCCc1cc(F)c(C(=O)N[C@@H](Cc2cccc3c(-c4c(C(F)(F)F)c5ccccc5n(C)c4=O)cccc23)C(=O)O)c(F)c1` [Compound 368], the IC50 at α4β7 integrin [1] and on α4β7 integrin [2] was 0.1 to 1 µM each time.
In the case of `Cn1c(=O)c(-c2cccc3c(C[C@H](NC(=O)c4c(F)cc(C5CCNCC5)cc4F)C(=O)O)cccc23)c(C(F)(F)F)c2ccccc21` [Compound 365], the IC50 on α4β7 integrin [1] and at α4β7 integrin [2] was 0.1 to 1 µM each time.
Turning to `Cn1c(=O)c(-c2cccc3c(C[C@H](NC(=O)c4c(F)ccc(C(F)(F)F)c4F)C(=O)O)cccc23)c(C(F)(F)F)c2ccccc21` [Compound 461], the IC50 against α4β7 integrin [1] and on α4β7 integrin [2] was 0.1 to 1 µM throughout.
Turning to `Cn1c(=O)c(-c2cccc3c(C[C@H](NC(=O)c4c(F)cc(N5CCOc6ccccc65)cc4F)C(=O)O)cccc23)c(C(F)(F)F)c2ccccc21` [Compound 332], the IC50 against α4β7 integrin [1] and on α4β7 integrin [2] was 0.1 to 1 µM throughout.
Consider `Cc1n[nH]c(C(F)(F)F)c1-c1cc(F)c(C(=O)N[C@@H](Cc2cccc3c(-c4c(C(F)(F)F)c5ccccc5n(C)c4=O)cccc23)C(=O)O)c(F)c1` [Compound 310], for which the IC50 against α4β7 integrin [1] and at α4β7 integrin [2] was 0.1 to 1 µM throughout.
For the compound `Cn1ccc(C(F)(F)F)c(-c2cccc3c(C[C@H](NC(=O)c4c(F)cc(N5CCOCC5c5ccc(C(F)(F)F)cc5)cc4F)C(=O)O)cccc23)c1=O` (stereo partly drawn) [Compound 442], the IC50 at α4β7 integrin [1] and at α4β7 integrin [2] was 0.1 to 1 µM throughout.
As to `Cn1c(=O)c(-c2cccc3c(C[C@H](NC(=O)c4c(F)cc(N5CC6(COC6)C5)cc4F)C(=O)O)cccc23)c(C(F)(F)F)c2ccccc21` [Compound 426], the IC50 on α4β7 integrin [1] and at α4β7 integrin [2] was 0.1 to 1 µM throughout.
`Cn1c(=O)c(-c2cccc3c(C[C@H](NC(=O)c4c(F)cc(C5CCC(F)(F)CC5)cc4F)C(=O)O)cccc23)c(C(F)(F)F)c2ccccc21` [Compound 381]: the results for the IC50 at α4β7 integrin [1] and at α4β1 integrin (setting [3]) were 0.1 to 1 µM and > 1 µM, respectively.
`CN(C)c1ccc2c(c1)c(C(F)(F)F)c(-c1cccc3c(C[C@H](NC(=O)[C@]4(C)CC[C@H](N5CCC(F)(F)CC5)CC4)C(=O)O)cccc13)c(=O)n2C` [Compound 412]: the IC50 against α4β7 integrin [1] and at α4β1 integrin (setting [3]) was > 1 µM in each case.
In the case of `COCCN(c1cc(F)c(C(=O)N[C@@H](Cc2cccc3c(-c4c(C(F)(F)F)c5ccccc5n(C)c4=O)cccc23)C(=O)O)c(F)c1)C1COC1` [Compound 393], the IC50 is 0.01 to 0.1 µM on α4β7 integrin [1] and > 1 µM at α4β1 integrin (setting [3]).
The matching figures for `Cn1c(=O)c(-c2cccc3c(C[C@H](NC(=O)C4(C)CCN([C@@H]5CCOC5)CC4)C(=O)O)cccc23)c(C(F)(F)F)c2ccccc21` [Compound 414]: < 0.01 µM and > 1 µM.
Take `CN(C)CCc1ccc2c(c1)c(C(F)(F)F)c(-c1cccc3c(C[C@H](NC(=O)c4c(F)cc(N5CCOC[C@@H]5C(F)(F)F)cc4F)C(=O)O)cccc13)c(=O)n2C` [Compound 708]: the values for the IC50 on α4β7 integrin [1] (protocol not given) and on α4β1 integrin (setting [4]) were < 0.01 µM and 0.1 to 1 µM, respectively.
Take `O=C(N[C@@H](Cc1cccc2c(-n3c(C(F)(F)F)cccc3=O)cccc12)C(=O)O)c1c(F)cccc1F` [Compound 1040]: the results for the IC50 against α4β7 integrin [1] (protocol not given) and at α4β1 integrin (setting [4]) were 0.01 to 0.1 µM and > 1 µM, respectively.
Consider `CN(C)Cc1ccc2c(-c3cccc4c(C[C@H](NC(=O)C5(C)CCN(CC(F)(F)F)CC5)C(=O)O)cccc34)nccc2c1` [Compound 583], for which the IC50 was 0.01 to 0.1 µM against α4β7 integrin [1] and > 1 µM at α4β1 integrin (setting [3]).
In the case of `Cn1c(=O)c(-c2cccc3c(C[C@H](NC(=O)c4c(F)cc(C(F)(F)F)cc4F)C(=O)O)cccc23)c(C(F)(F)F)c2ccccc21` [Compound 325], the IC50 against α4β7 integrin [1] and on α4β1 integrin (setting [3]) was > 1 µM in each case.
Consider `CN(C)Cc1ccc2c(c1)c(C(F)(F)F)c(-c1cccc3c(C[C@H](NC(=O)c4c(F)cc(N5CCOC[C@@H]5C(F)(F)F)cc4F)C(=O)O)cccc13)c(=O)n2C` [Compound 698], for which the IC50 on α4β7 integrin [1] (protocol not given) was < 0.01 µM; on α4β1 integrin (setting [4]), 0.1 to 1 µM.
Regarding `Cn1c(=O)c(-c2cccc3c(C[C@H](NC(=O)c4c(F)cc(N(C5COC5)C5COC5)cc4F)C(=O)O)cccc23)c(C(F)(F)F)c2ccccc21` [Compound 397], the IC50 was 0.1 to 1 µM at α4β7 integrin [1] and > 1 µM on α4β1 integrin (setting [3]).
`Cn1c(C(F)(F)F)cc(C(F)(F)F)c(-c2cccc3c(C[C@H](NC(=O)C4(C(F)(F)F)CCN(CC(F)(F)F)CC4)C(=O)O)cccc23)c1=O` [Compound 431]: the IC50 is < 0.01 µM against α4β7 integrin [1] and 0.1 to 1 µM at α4β1 integrin (setting [3]).
`Cc1n[nH]c(C)c1-c1ccc(F)c(C(=O)N[C@@H](Cc2cccc3c(-c4c(C(F)(F)F)c5ccccc5n(C)c4=O)cccc23)C(=O)O)c1F` [Compound 309]: the values for the IC50 against α4β7 integrin [1] and on α4β1 integrin (setting [3]) were 0.01 to 0.1 µM and > 1 µM, respectively.
With `CN(C)Cc1cccc(F)c1C(=O)N[C@@H](Cc1cccc2c(-c3cccc4ccncc34)cccc12)C(=O)O` [Compound 357], the IC50 against α4β7 integrin [1] is 0.01 to 0.1 µM; on α4β1 integrin (setting [3]), > 1 µM.
As to `Cn1c(=O)c(-c2cccc3c(C[C@H](NC(=O)[C@]4(C)CC[C@@H](N5CCC(F)(F)CC5)CC4)C(=O)O)cccc23)c(C(F)(F)F)c2ccccc21` [Compound 401], the figures for the IC50 on α4β7 integrin [1] and on α4β1 integrin (setting [3]) were 0.01 to 0.1 µM and > 1 µM, respectively.
`Cc1[nH]c2ccccc2c1-c1cc(F)c(C(=O)N[C@@H](Cc2cccc3c(-c4c(C(F)(F)F)c5ccccc5n(C)c4=O)cccc23)C(=O)O)c(F)c1` [Compound 327]: the IC50 on α4β7 integrin [1] was 0.1 to 1 µM; on α4β1 integrin (setting [3]) it was > 1 µM.

These data come from patent publication US20250313535A1, “ALPHA 4 BETA 7 INTEGRIN MODULATORS AND USES THEREOF” (DICE MOLECULES SV, INC., priority 2022, published 2025).
